Data: patent US8192962B2, “Processes for detecting toxic substances” (Daikin Industries, Ltd., priority 2001, dated 2012)

System: DNA repair protein genes
Assay: DNA chip mRNA expression in yeast, DNA repair protein genes (Table 3)
Type: cell-based, Saccharomyces cerevisiae S288C
Conditions: incubated two hours, concentrations as in the 1st table
Procedure, shortened: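 Measured as treated-to-untreated fluorescence ratio on a full-genome yeast DNA chip. Cells (S288C, YPD, 25° C.) were exposed in log phase for two hours to one chemical, dosed to curb growth without killing.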

SMILES: CCCCC[C@H](O)CC(=O)CCc1ccc(O)c(OC)c1 [(13), gingerol]
- The level of expressed mRNA in the presence of chemical substance/The level of expressed mRNA in the absence of chemical substance (yeast gene YDL200C): 1.1
- The level of expressed mRNA in the presence of chemical substance/The level of expressed mRNA in the absence of chemical substance (yeast gene YEL019C): 1.0
- The level of expressed mRNA in the presence of chemical substance/The level of expressed mRNA in the absence of chemical substance (yeast gene YGL058W): 1.0
- The level of expressed mRNA in the presence of chemical substance/The level of expressed mRNA in the absence of chemical substance (yeast gene YIL072W): 1.4
- The level of expressed mRNA in the presence of chemical substance/The level of expressed mRNA in the absence of chemical substance (yeast gene YLR233C): 1.0
- The level of expressed mRNA in the presence of chemical substance/The level of expressed mRNA in the absence of chemical substance (yeast gene YLR288C): 0.7
- The level of expressed mRNA in the presence of chemical substance/The level of expressed mRNA in the absence of chemical substance (yeast gene YMR284W): 1.0
- The level of expressed mRNA in the presence of chemical substance/The level of expressed mRNA in the absence of chemical substance (yeast gene YNL312W): 0.7
- The level of expressed mRNA in the presence of chemical substance/The level of expressed mRNA in the absence of chemical substance (yeast gene YPL164C): 1.0
- The level of expressed mRNA in the presence of chemical substance/The level of expressed mRNA in the absence of chemical substance (yeast gene YPR025C): 1.1

SMILES: S=C([S-])NCCNC(=S)[S-].[Zn+2] [(11), zinc N,N′-ethylenebis(dithiocarbamate)]
- The level of expressed mRNA in the presence of chemical substance/The level of expressed mRNA in the absence of chemical substance (yeast gene YAL015C): 1.4
- The level of expressed mRNA in the presence of chemical substance/The level of expressed mRNA in the absence of chemical substance (yeast gene YAR007C): 0.9
- The level of expressed mRNA in the presence of chemical substance/The level of expressed mRNA in the absence of chemical substance (yeast gene YBL019W): 1.0
- The level of expressed mRNA in the presence of chemical substance/The level of expressed mRNA in the absence of chemical substance (yeast gene YBR073W): 0.5
- The level of expressed mRNA in the presence of chemical substance/The level of expressed mRNA in the absence of chemical substance (yeast gene YBR272C): 1.1
- The level of expressed mRNA in the presence of chemical substance/The level of expressed mRNA in the absence of chemical substance (yeast gene YCR014C): 0.8
- The level of expressed mRNA in the presence of chemical substance/The level of expressed mRNA in the absence of chemical substance (yeast gene YDL017W): 0.8
- The level of expressed mRNA in the presence of chemical substance/The level of expressed mRNA in the absence of chemical substance (yeast gene YDL059C): 2.0
- The level of expressed mRNA in the presence of chemical substance/The level of expressed mRNA in the absence of chemical substance (yeast gene YDL200C): 1.2
- The level of expressed mRNA in the presence of chemical substance/The level of expressed mRNA in the absence of chemical substance (yeast gene YDR054C): 1.9
- The level of expressed mRNA in the presence of chemical substance/The level of expressed mRNA in the absence of chemical substance (yeast gene YDR369C): 1.1
- The level of expressed mRNA in the presence of chemical substance/The level of expressed mRNA in the absence of chemical substance (yeast gene YEL019C): 1.2
- The level of expressed mRNA in the presence of chemical substance/The level of expressed mRNA in the absence of chemical substance (yeast gene YEL037C): 1.0
- The level of expressed mRNA in the presence of chemical substance/The level of expressed mRNA in the absence of chemical substance (yeast gene YER162C): 0.5
- The level of expressed mRNA in the presence of chemical substance/The level of expressed mRNA in the absence of chemical substance (yeast gene YFL014W): 5.0
- The level of expressed mRNA in the presence of chemical substance/The level of expressed mRNA in the absence of chemical substance (yeast gene YGL058W): 0.8
- The level of expressed mRNA in the presence of chemical substance/The level of expressed mRNA in the absence of chemical substance (yeast gene YGL091C): 2.1
- The level of expressed mRNA in the presence of chemical substance/The level of expressed mRNA in the absence of chemical substance (yeast gene YGL127C): 1.0
- The level of expressed mRNA in the presence of chemical substance/The level of expressed mRNA in the absence of chemical substance (yeast gene YGL163C): 0.4
- The level of expressed mRNA in the presence of chemical substance/The level of expressed mRNA in the absence of chemical substance (yeast gene YGL249W): 0.6
- The level of expressed mRNA in the presence of chemical substance/The level of expressed mRNA in the absence of chemical substance (yeast gene YGR180C): 1.0
- The level of expressed mRNA in the presence of chemical substance/The level of expressed mRNA in the absence of chemical substance (yeast gene YGR231C): 1.6
- The level of expressed mRNA in the presence of chemical substance/The level of expressed mRNA in the absence of chemical substance (yeast gene YGR258C): 0.3
- The level of expressed mRNA in the presence of chemical substance/The level of expressed mRNA in the absence of chemical substance (yeast gene YHR164C): 0.6
- The level of expressed mRNA in the presence of chemical substance/The level of expressed mRNA in the absence of chemical substance (yeast gene YIL036W): 1.2
- The level of expressed mRNA in the presence of chemical substance/The level of expressed mRNA in the absence of chemical substance (yeast gene YIL072W): 1.8
- The level of expressed mRNA in the presence of chemical substance/The level of expressed mRNA in the absence of chemical substance (yeast gene YIL143C): 1.5
- The level of expressed mRNA in the presence of chemical substance/The level of expressed mRNA in the absence of chemical substance (yeast gene YIL153W): 1.0
- The level of expressed mRNA in the presence of chemical substance/The level of expressed mRNA in the absence of chemical substance (yeast gene YIR002C): 0.8
- The level of expressed mRNA in the presence of chemical substance/The level of expressed mRNA in the absence of chemical substance (yeast gene YJL026W): 1.3
- The level of expressed mRNA in the presence of chemical substance/The level of expressed mRNA in the absence of chemical substance (yeast gene YJR046W): 0.6
- The level of expressed mRNA in the presence of chemical substance/The level of expressed mRNA in the absence of chemical substance (yeast gene YJR052W): 1.1
- The level of expressed mRNA in the presence of chemical substance/The level of expressed mRNA in the absence of chemical substance (yeast gene YKL145W): 1.8
- The level of expressed mRNA in the presence of chemical substance/The level of expressed mRNA in the absence of chemical substance (yeast gene YLR103C): 0.9
- The level of expressed mRNA in the presence of chemical substance/The level of expressed mRNA in the absence of chemical substance (yeast gene YLR233C): 0.8
- The level of expressed mRNA in the presence of chemical substance/The level of expressed mRNA in the absence of chemical substance (yeast gene YLR288C): 1.4
- The level of expressed mRNA in the presence of chemical substance/The level of expressed mRNA in the absence of chemical substance (yeast gene YML032C): 1.0
- The level of expressed mRNA in the presence of chemical substance/The level of expressed mRNA in the absence of chemical substance (yeast gene YML058W): 3.3
- The level of expressed mRNA in the presence of chemical substance/The level of expressed mRNA in the absence of chemical substance (yeast gene YMR035W): 1.5
- The level of expressed mRNA in the presence of chemical substance/The level of expressed mRNA in the absence of chemical substance (yeast gene YMR072W): 1.9
- The level of expressed mRNA in the presence of chemical substance/The level of expressed mRNA in the absence of chemical substance (yeast gene YMR096W): 1.5
- The level of expressed mRNA in the presence of chemical substance/The level of expressed mRNA in the absence of chemical substance (yeast gene YMR284W): 1.1
- The level of expressed mRNA in the presence of chemical substance/The level of expressed mRNA in the absence of chemical substance (yeast gene YNL213C): 1.5
- The level of expressed mRNA in the presence of chemical substance/The level of expressed mRNA in the absence of chemical substance (yeast gene YNL250W): 1.0
- The level of expressed mRNA in the presence of chemical substance/The level of expressed mRNA in the absence of chemical substance (yeast gene YNL261W): 0.8
- The level of expressed mRNA in the presence of chemical substance/The level of expressed mRNA in the absence of chemical substance (yeast gene YNL312W): 1.4
- The level of expressed mRNA in the presence of chemical substance/The level of expressed mRNA in the absence of chemical substance (yeast gene YOL043C): 1.2
- The level of expressed mRNA in the presence of chemical substance/The level of expressed mRNA in the absence of chemical substance (yeast gene YOR005C): 1.2
- The level of expressed mRNA in the presence of chemical substance/The level of expressed mRNA in the absence of chemical substance (yeast gene YOR386W): 1.4
- The level of expressed mRNA in the presence of chemical substance/The level of expressed mRNA in the absence of chemical substance (yeast gene YPL022W): 0.8
- The level of expressed mRNA in the presence of chemical substance/The level of expressed mRNA in the absence of chemical substance (yeast gene YPL164C): 1.1
- The level of expressed mRNA in the presence of chemical substance/The level of expressed mRNA in the absence of chemical substance (yeast gene YPL194W): 0.9
- The level of expressed mRNA in the presence of chemical substance/The level of expressed mRNA in the absence of chemical substance (yeast gene YPR025C): 0.9
